ChEMBL document CHEMBL2177099, “Discovery of 1-[4-(N-benzylamino)phenyl]-3-phenylurea derivatives as non-peptidic selective SUMO-sentrin specific protease (SENP)1 inhibitors” (Bioorg Med Chem Lett, 2012)
Activity calls are given as the source filed them. No cut-off for these calls is given here.

Key:
HeLa [1] = assay: Inhibition of hypoxia-induced HIF1alpha accumulation in human HeLa cells after 6 hrs by Western blot analysis; type: functional, cell-based
HeLa [2] = conditions: Homo sapiens, 3 uM
Description: Inhibition of hypoxia-induced HIF1alpha accumulation in human HeLa cells at 3 uM after 6 hrs by Western blot analysis

[3] = target: T1, Thermolysin (Bacillus thermoproteolyticus) (UniProt P00800); assay: Inhibition of Bacillus thermoproteolyticus rokko thermolysin using FITC-Casein substrate at 10 to 100 uM by fluorescence assay
T1 sequence (whole entry): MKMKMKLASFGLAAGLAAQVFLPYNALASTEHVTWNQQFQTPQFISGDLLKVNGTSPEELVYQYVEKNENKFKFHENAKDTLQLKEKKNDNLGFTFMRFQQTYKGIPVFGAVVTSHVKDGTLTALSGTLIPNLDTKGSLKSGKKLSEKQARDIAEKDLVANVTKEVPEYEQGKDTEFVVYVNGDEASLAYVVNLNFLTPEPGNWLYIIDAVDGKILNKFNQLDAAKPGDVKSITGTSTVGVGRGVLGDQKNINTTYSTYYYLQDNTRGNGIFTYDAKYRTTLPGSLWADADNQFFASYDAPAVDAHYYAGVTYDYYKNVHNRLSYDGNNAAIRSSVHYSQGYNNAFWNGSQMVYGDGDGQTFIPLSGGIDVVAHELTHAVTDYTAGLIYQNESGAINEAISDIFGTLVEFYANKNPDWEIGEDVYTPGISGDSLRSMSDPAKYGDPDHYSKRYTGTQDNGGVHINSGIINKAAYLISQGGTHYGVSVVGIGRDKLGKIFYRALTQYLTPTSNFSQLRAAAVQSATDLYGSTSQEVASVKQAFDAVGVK

Bos taurus [4] = organism: Bos taurus; assay: Inhibition of bovine pancreatic trypsin using FITC-Casein substrate at 10 to 100 uM by fluorescence assay
Bos taurus [5] = organism: Bos taurus; assay: Inhibition of bovine pancreatic chymotrypsin using FITC-Casein substrate at 10 to 100 uM by fluorescence assay
[6] = target: T2, Sentrin-specific protease 2 (Homo sapiens) (UniProt Q9HC62); assay: Inhibition of recombinant human SENP2 catalytic domain assessed as release of fluorescent AMC from SUMO-1-AMC preincubated at 10 to 100 uM for 10 mins before substrate addition by fluorescence assay
T2 sequence (whole entry): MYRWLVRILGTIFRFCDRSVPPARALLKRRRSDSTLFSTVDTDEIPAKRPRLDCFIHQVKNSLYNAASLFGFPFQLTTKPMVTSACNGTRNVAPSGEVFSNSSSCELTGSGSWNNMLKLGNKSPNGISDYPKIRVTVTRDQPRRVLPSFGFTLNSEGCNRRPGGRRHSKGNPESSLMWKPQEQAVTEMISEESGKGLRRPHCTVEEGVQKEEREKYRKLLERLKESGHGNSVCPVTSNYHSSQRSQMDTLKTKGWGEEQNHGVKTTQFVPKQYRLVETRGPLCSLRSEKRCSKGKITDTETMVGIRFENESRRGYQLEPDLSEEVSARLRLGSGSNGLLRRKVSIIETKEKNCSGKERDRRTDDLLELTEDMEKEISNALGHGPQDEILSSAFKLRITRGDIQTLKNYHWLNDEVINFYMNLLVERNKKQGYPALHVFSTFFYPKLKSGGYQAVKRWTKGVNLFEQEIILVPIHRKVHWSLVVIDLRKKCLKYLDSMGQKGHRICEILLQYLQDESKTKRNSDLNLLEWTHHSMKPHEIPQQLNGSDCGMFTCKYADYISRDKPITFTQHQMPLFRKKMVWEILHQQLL

SMILES	inhibition (HeLa [1])	inhibition (HeLa [2])	inhibition [3]	inhibition (Bos taurus [4])	inhibition (Bos taurus [5])	inhibition [6]
COC(=O)c1cccc(CNc2ccc(N(C)C(=O)Nc3ccccc3)cc2)c1	Dose-dependent effect	Active				
CCOC(=O)c1cccc(CNc2ccc(N(C)C(=O)Nc3ccccc3)cc2)c1	Dose-dependent effect		inactive	inactive	inactive	inactive
